Experiments:
[1] = tested on: human lung carcinoma A549; assay: MTT assay, A549; type: cell-based
Method: (§4) Solutions of the platinum compounds were freshly prepared in sterile PBS before use and their concentrations quantitated by atomic absorption spectroscopy. Cells were seeded on a 96-well plate (1200 cells per well for cancer cells and 1800 cells per well for the normal lung fibroblasts) in 100 μL RPMI or DMEM media, and incubated for 24 h. […] The cells were then treated with 20 μL of 3-(4,5-dimethylthiazol-2-yl)-2,5-diphenyltetrazolium bromide (MTT) (5 mg/mL in PBS) and incubated for 4 h. The medium was removed, 100 μL of DMSO was added to the cells, and the absorbance of the purple formazan was recorded at 560 nm using a BioTek Synergy HT multi-detection microplate plate reader. Each condition was performed in triplicate and three independent experiments were carried out for each cell line.
(§5) Human prostate carcinoma (PC3) and human cervix carcinoma (HeLa) cells were obtained from the ATCC. The human lung carcinoma cell line A549 was kindly provided by David E. Root (Whitehead Institute for Biomedical Research). Cells were incubated at 37° C. in 5% CO2 and grown in RPMI (PC3) or DMEM (A549 and HeLa) medium supplemented with 10% fetal bovine serum and 1% penicillin/streptomycin. Cells were passaged every 3 to 4 days and restarted from the frozen stock upon reaching passage number 20.
(§6) Solutions of the platinum agents were freshly prepared in sterile PBS before use and the platinum content was quantitated by AAS. Cells were seeded on 96 well plates (1200 cells per well) in 100 μL RPMI or DMEM media\ and incubated for 24 hours. […] The cells were then treated with 20 μL of 3-(4,5-dimethylthiazol-2-yl)-2,5-diphenyltetrazolium bromide (MTT) (5 mg/mL in PBS) and incubated for 4 h. The medium was removed, 100 μL of DMSO were added to the cells, and the absorbance of the purple formazan was recorded at 570 nm using a BioTek Synergy HT multi-detection microplate plate reader. For each cell line, three independent experiments were carried out in triplicate.

[2] = tested on: Human colon carcinoma HT29; assay: MTT assay, HT29; type: cell-based
Method: Human colon carcinoma HT29, human breast carcinoma MCF7, human bone sarcoma U2OS, human prostate carcinoma PC3, and human cervix carcinoma HeLa cells were obtained from the ATCC. A2780/CP70 cisplatin-resistant human ovarian cancer cells were kindly provided by Dr. Stephen B. Howell (Moores UCSD Cancer Center) and the human lung carcinoma cell lines A549 and normal lung fibroblast MRC5 by David E. Root (Whitehead Institute for Biomedical Research). Cells were incubated at 37° C. in 5% CO2 and grown in RPMI (HT29, A2780/CP70, and PC3) or DMEM (A549, MRC5, HeLa, MCF7, and U2OS) medium supplemented with 10% fetal bovine serum and 1% penicillin/streptomycin. Cells were passed every 3 to 4 days and restarted from a frozen stock upon reaching pass number 20.
Solutions of the platinum compounds were freshly prepared in sterile PBS before use and their concentrations quantitated by atomic absorption spectroscopy. […] The cells were then treated with 20 μL of 3-(4,5-dimethylthiazol-2-yl)-2,5-diphenyltetrazolium bromide (MTT) (5 mg/mL in PBS) and incubated for 4 h. The medium was removed, 100 μL of DMSO was added to the cells, and the absorbance of the purple formazan was recorded at 560 nm using a BioTek Synergy HT multi-detection microplate plate reader. Each condition was performed in triplicate and three independent experiments were carried out for each cell line.

NTera2 = assay: MTT assay, NTera2; type: cell-based, human; details: Table 3, NTera2 Testis, 72-h incubation
Method: as §4

[3] = tested on: human prostate carcinoma PC3; assay: MTT assay, PC3; type: cell-based
Method: as §4, §5, §6

calf thymus DNA = assay: Ethidium bromide DNA-binding competition, Scatchard analysis; parameters: key: competitive (type A); non-competitive (type D); both (type B); No inhibition of ethidium binding is labeled as type C
Excerpt: Using this approach, it is possible to determine whether the inhibition of ethidium binding is competitive (type A), non-competitive (type D), or both (type B). No inhibition of ethidium binding is labeled as type C.

[4] = tested on: Gaussia luciferase expression in A549 cells; details: ratio of recovery of transcription level vs. time
Method: (§1) Vector Construction and Preparation. […] Preparation of Platinated Insertion Strand. […] The suspension was centrifuged. To a solution of 0.2 mM 16-mer oligonucleotide 5′-[…]*[…] The reaction mixture was incubated in the dark at 37° C. overnight. The reaction was stopped when the solution was frozen. […] After purification, the platinated DNA solution was dialyzed against H2O and lyophilized. […] The insertion strand was further analyzed for nucleotide composition by nuclease S1 digestion to confirm the platination site following a protocol published previously (Table 13) (e.g., see J Am Chem Soc 2007, 129, 6370-6371). The platinated and unplatinated DNA strands (40 μM) were phosphorylated by T4 PNK (0.67 U/μL) at 37° C. for 3 h, followed by a phenol/chloroform/isoamyl alcohol extraction to remove the enzyme. The phosphorylated DNA strands were ethanol precipitated and stored in −80° C. at a concentration of 100 pmol/μL.
(§2) Briefly, a 600 μg quantity of pGLuc8temG plasmid was digested with 30 U Nt.BbvCI at 37° C. for 1 h. The reaction mixture was heated at 80° C. for 20 min to deactivate the enzyme, followed by a phenol/chloroform/isoamyl alcohol extraction to remove the enzyme. The mixture was dialyzed against H2O overnight at 4° C. The plasmid was further digested with 30 U Nt.BspQI at 50° C. for 1 h, and the enzyme was heat-deactivated and removed by a phenol/chloroform/isoamyl alcohol extraction. The nicked plasmid was mixed with 1,000 equiv of complementary DNA strand 5′-[…] (SEQ ID NO: 2) in a buffer of 10 mM Tris-HCl, 2 mM MgCl2, 0.4 M NaCl, pH 7.4, heated at 80° C. for 5 min, and subsequently cooled at 4° C. for 5 min for 10 cycles. […] A 120 μg quantity of the gapped plasmid was annealed with 100 equiv of the insertion strand in a buffer of 10 mM Tris-HCl, 2 mM MgCl2, 0.4 M NaCl, pH 7.4 from 90° C. to 4° C. at −1° C./min in a thermocycler. The platinated plasmid was dialyzed against H2O at 4° C. overnight and further purified by treatment with 30 U BsmBI at 55° C. for 1 h. The closed-circular form of plasmid was purified and concentrated by isopycnic centrifugation, followed by n-butanol extraction and ethanol precipitation. The plasmids were quantitated by a Quant-iT™ PicoGreen® dsDNA Kit from Invitrogen (Carlsbad, Calif.), and stored in −80° C. in TE buffer (10 mM Tris-HCl, 2 mM EDTA, pH 7.4).
(§3) Transfection of platinated plasmids into mammalian cells was carried out as reported previously (e.g., see ChemBioChem 2011, 12, 1115-1123). A549 and HeLa cells were plated at 2,000 cells per well in 96-well plates. NTera-2 and HT29 cells were plated at 4,000 cells per well in 96-well plates. MCF7 and U2OS cells were plated at 5,000 cells per well in 96-well plates. The cells were allowed to attach and grow for 48 h, and then washed with antibiotic-free culture media right before transfection. Transient transfection of the cells was carried out using Lipofectamine 2000. Briefly, 10 ng of site specifically platinated probes was included in each well. The experiments were performed in quadruplicate. The probes were diluted in OptiMEM, and Lipofectamine was diluted in OptiMEM. The two solutions were combined and incubated for 20 min. The transfection mixture was delivered into each well, and the cells were incubated for 2 h. The cells were washed with antibiotic-free culture media to remove the transfection mixture. A 100 μL volume of fresh, antibiotic-free media was added into each well to start the transcription assay. […]

[5] = tested on: Gaussia luciferase expression in HT29 cells; details: ratio of recovery of transcription level vs. time
Method: as §1, §2, §3

[6] = tested on: Gaussia luciferase expression in HeLa cells; details: ratio of recovery of transcription level vs. time
Method: as §1, §2, §3

[7] = tested on: Gaussia luciferase expression in MCF7 cells; details: ratio of recovery of transcription level vs. time
Method: as §1, §2, §3

[8] = tested on: Gaussia luciferase expression in U2OS cells; details: ratio of recovery of transcription level vs. time
Method: as §1, §2, §3

[9] = tested on: 60 different human cancer cell lines; assay: NCI-60 DTP Human Tumor Cell Line Screen; details: single dose of 10 μM

IC50 ([1]; Table 3, A549 Lung, 72-h incubation): 220 ± 10 nM
IC50 ([1]; Table 4, A549 human lung carcinoma, 72 h incubation): 170 ± 2 nM
IC50 ([1]; Table 5, A549, 72-h incubation): 220 ± 10 nM
IC50 ([1]; Table 11 (Example 3), A549 Lung, 72 h): 220 ± 6 nM
IC50 ([1]; Table 14, A549, MTT assay): 170 ± 10 nM
IC50 ([2]; Table 3, HT29 Colorectal, 72-h incubation): 2020 ± 40 nM
IC50 ([2]; Table 5, HT29, 72-h incubation): 2020 ± 40 nM
IC50 ([2]; Table 14, HT29, MTT assay): 2020 ± 40 nM
IC50 ([3]; Table 3, PC3 Prostate, 72-h incubation): 740 ± 40 nM
IC50 ([3]; Table 11 (Example 3), PC3 Prostate, 72 h): 600 ± 250 nM
Substance: cis-[Pt(NH3)2(phenanthridine)Cl]NO3 [phenanthriplatin]
IC50 (NTera2): 35 ± 2 nM
type of inhibition of ethidium binding (Scatchard) (calf thymus DNA; 12-h incubation period): type D
type of inhibition of ethidium binding (Scatchard) (calf thymus DNA; 1 min incubation period): type C
recovery rate of transcription (S) [4]: 0.263
recovery rate of transcription (S) [5]: 0.884
recovery rate of transcription (S) [6]: 0.434
recovery rate of transcription (S) [7]: 0.337
recovery rate of transcription (S) [8]: 0.805
growth inhibition of the 60 cell lines [9]: significant growth inhibition

— patent publication US9034862B2, “Compositions and methods for the treatment of cancer” (priority 2011, dated 2015)
